Test results published in patent publication US20160000762A1, “IMPROVING COGNITIVE FUNCTION” (THE REGENTS OF THE UNIVERSITY OF CALIFORNIA, priority 2013, published 2016).

Columns and labels:
[1] = system: T1, APP; test: Live cell surface immunostaining, primary hippocampal neurons; type: cell-based, Sprague-Dawley rats; conditions: 5 μM, 24 h
T1 construct: expressed in transfected cells; host or cells: primary hippocampal neurons from E19 Sprague-Dawley rats
Method: Primary neuron culture and immunostaining. Primary hippocampal neurons from E19 Sprague-Dawley rats were cultured at 150 cells/mm^2 as previously described (Pak et al., 2001). Neurons were transfected using Lipofectamine™ 2000 (Invitrogen, Carlsbad, Calif., USA) or calcium phosphate precipitation with GFP+PLL, GFP+APP shRNA, or GFP+APP and treated with BTA-EG4. The following antibodies were used: mouse anti-GFP (Novus Biologicals, 9F9.F9), rabbit anti-GFP (Invitrogen, A11122), rabbit anti-GluR1 (Calbiochem, PC246), mouse anti-GluR2 (BD Pharmagen, 556341), mouse anti-postsynaptic density (PSD)-95 (NeuroMabs, Davis, Calif., USA), mouse anti-Synaptophysin (Sigma Aldrich, s5768), rabbit APP N-terminal (Sigma-Aldrich, A8967), anti-Ras (BD Biosciences, 610001), anti-RasGRF1 (Santa Cruz, C-20; BD Biosciences, 610149), anti-ERK1/2 (Cell Signaling, 4695), anti-p-ERK1/2 (Invitrogen, 36880), anti-CREB (Cell Signaling, D76D11), anti-p-CREB (Millipore, 06-519), and mouse anti-c-Myc (Novus Biologicals, 9E10). Cultured hippocampal neuron images were acquired by LSM 510 laser scanning confocal microscope (Zeiss). Confocal zseries image stacks encompassing entire dendrite segments were analyzed using MetaMorph software (Universal Imaging Corporation, Downington, Pa., USA).
Live cell surface immunostaining. […] Surface-labeled APP was detected with ALEXA FLUORO-555 secondary antibodies. […]

[2] = system: Ras; test: Ras activity assay, brain lysate of 3× Tg AD mice; type: in vivo; conditions: cortex and hippocampus, 30 mg/kg daily, 2 weeks
Method: Ras activity assay. Brain lysate from 3× Tg AD mice at 6-10 months or 13-16 months of age was homogenized with Ral buffer (25 mM Tris-HCl, pH 7.4, 250 mM NaCl, 0.5% NP40, 1.25 mM MgCl2, and 5% glycerol) to measure active Ras levels. Briefly, brain lysate was incubated with GST-Raf-RBD purified protein coupled with GLUTATHIONE SEPHAROSE™ (Amersham) overnight at 4° C. After 24 h, pellets were washed with Ral buffer and western blotting was conducted with anti-Ras.
BTA-EG4 injected 6-10 month old 3× Tg AD mice had increased Ras activity. […] Therefore, we examined whether the same mechanism is shared for improving dendritic spine density in the 3× Tg AD mouse model. To test this, 6-10 month old or 13-16 month old 3× Tg AD mice were injected with 30 mg/kg BTA-EG4 or vehicle daily for two weeks. After two weeks, mouse brains were homogenized with Ral buffer and levels of active Ras and RasGRF1 ([…]) were measured via Western blot. […] However, Ras activity was unchanged in the cortex and hippocampus of 13-16 month old mice (FIGS. 12E-12H, n=2 brains/group).

[3] = system: AMPAR and NMDAR subunits; test: Slice surface biotinylation, AMPAR and NMDAR subunits in CA1 slices; type: in vivo, mice
Method: Slice surface biotinylation. Hippocampal slices (400 μm thick) were prepared as described above. CA3 and DG regions were cut away after the slice preparation to isolate CA1. After 30 min recovery at room temperature, the slices were transferred to 30° C. for additional 30 min recovery. The slices were then transferred to ice-cold ACSF for 10 min, and subsequently to ice-cold ACSF containing 1 mg/ml biotin (EZ-Link Sulfo-NHS-SS-Biotin, Pierce) saturated with 5% CO2/95% O2 for 15 min. The slices were then washed in tris-buffered saline (TBS: 50 mM Tris, 0.9% NaCl, pH 7.4) containing 100 mM glycine 5 times for 1 min each before homogenized in ice-cold 0.2% SDS/1% Triton X-100 IPB (20 mM Na3PO4, 150 mM NaCl, 10 mM EDTA, 10 mM EGTA, 10 mM Na4P2O7, 50 mM NaF, and 1 mM Na3VO4, pH 7.4; with […] okadaic acid and 10 KIU/ml aprotinin) by 30 gentle strokes using glass-Teflon tissue homogenizers (Pyrex). The homogenates were centrifuged for 10 min at 13,200×g, 4° C. Protein concentration of the supernatant was normalized to 0.6-1.5 mg/ml. Some of the supernatants were saved as inputs, and the remaining supernatant was mixed with neutravidin slurry [1:1 in 1% Triton X-100 IPB (TX-IPB)] and rotated overnight at 4° C. The neutravidin beads were isolated by brief centrifugation at 1,000×g, and washed 3×1% TX-IPB, 3×1% TX-IPB+500 mM NaCl, followed by 2×1% TX-IPB. The biotinylated surface proteins were then eluded from the neutravidin beads by rotating at room temperature for 15 min in gel sample buffer with 2 mM DTT. The input (total homogenate) and biotinylated samples (surface fraction) were run on separate gels, and processed for immunoblot analysis using GluA1 (sc-55509, Santa Cruz), GluA2/3 (07-598, Upstate/Millipore), GluN1 (a gift from Dr. R. Huganir), GluN2A (07-632, Upstate/Millipore), and GluN2B (71-8600, Invitrogen) antibodies. NMDAR subunit blots were developed using enhanced chemifluorescence substrate (ECF™ substrate, Amersham). AMPAR blots were probed simultaneously with GluR1 and GluR2/3 antibodies followed by second antibodies linked to Cy5 and Cy3. All blots were scanned using TYPHOON™ 9400 (GE Health), and quantified using Image Quant TL software (GE Health). The signal of each sample on a blot was normalized to the average signal from the control group to obtain the % of average control values, which were compared across groups using unpaired Student's t-test.
To test whether the increase in functional excitatory synapses is via cell surface recruitment of glutamate receptors, we performed steady-state surface biotinylation using acute hippocampal slices obtained from mice injected with BTA-EG4 (30 mg/kg) or control vehicle for 2 weeks. Both the cell surface and total levels of major AMPAR subunits GluA1 and GluA2, as well as NMDAR subunits GluN1, GluN2A and GluN2B, were quantified.

T1 sequence (P05067 18-770): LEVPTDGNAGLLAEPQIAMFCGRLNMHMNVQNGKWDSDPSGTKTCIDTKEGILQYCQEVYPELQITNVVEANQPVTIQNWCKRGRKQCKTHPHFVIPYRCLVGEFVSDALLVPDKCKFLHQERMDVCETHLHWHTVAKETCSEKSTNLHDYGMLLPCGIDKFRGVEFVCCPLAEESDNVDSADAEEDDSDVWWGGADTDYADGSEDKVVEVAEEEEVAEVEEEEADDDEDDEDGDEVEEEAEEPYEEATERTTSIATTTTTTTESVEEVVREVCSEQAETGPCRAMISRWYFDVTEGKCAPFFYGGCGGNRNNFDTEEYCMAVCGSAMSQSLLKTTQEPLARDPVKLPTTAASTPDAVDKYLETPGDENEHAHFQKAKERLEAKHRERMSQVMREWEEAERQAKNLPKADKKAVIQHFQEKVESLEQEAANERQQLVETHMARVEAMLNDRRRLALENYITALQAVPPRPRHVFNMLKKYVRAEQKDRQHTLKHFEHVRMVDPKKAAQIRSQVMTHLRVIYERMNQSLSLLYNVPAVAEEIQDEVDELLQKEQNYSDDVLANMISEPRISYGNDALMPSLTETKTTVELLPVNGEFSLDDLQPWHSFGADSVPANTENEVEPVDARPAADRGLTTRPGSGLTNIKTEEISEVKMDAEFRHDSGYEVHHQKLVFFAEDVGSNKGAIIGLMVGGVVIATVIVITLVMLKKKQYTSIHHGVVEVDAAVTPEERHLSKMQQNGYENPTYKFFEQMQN

## BTA-EG4
[1]
  cell surface levels of APP: increased
  total levels of APP: without affecting
[2]; 6-10 months
  Ras activity: increased
[2]; 13-16 months
  Ras activity: unchanged
[3]; 30 mg/kg, 2 weeks
  cell surface or total expression of GluA1, GluA2, GluN1, GluN2A, GluN2B: no significant change
[3]; total homogenate, CTRL=0.96±0.10
  GluA1/β-actin ratio: 1.06±0.12
[3]; total homogenate, CTRL=0.98±0.09
  GluA2/β-actin ratio: 1.27±0.14
[3]; total homogenate, CTRL=0.98±0.12
  GluN1/β-actin ratio: 1.27±0.05
[3]; total homogenate, CTRL=1.02±0.11
  GluN2B/β-actin ratio: 1.33±0.14
[3]; total homogenate, CTRL=1.03±0.08
  GluN2A/β-actin ratio: 1.04±0.14
